Assay results published in US20240109900A1, “AZABICYCLIC SHP2 INHIBITORS” (IRBM S.P.A., priority 2021, published 2024).
Read-outs that look alike come from different tables or passages of the source.

Columns and labels:
[1] = test system: ERK phosphorylation in KYSE-520 cells; experiment: Phospho-ERK cellular assay; format: cell-based; settings: KYSE-520 cells, 2 h at 37° C., phospho-ERK1/2 (Thr202/Tyr204) TR-FRET, read-out: PERK IC50
Summary of the method: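 TR-FRET read-out of ERK1/2 Thr202/Tyr204 phosphorylation was taken after overnight antibody incubation at room temperature. Before that, KYSE-520 cells were treated 2 h at 37 °C with compound dilutions and lysed 30 min. Percent inhibition relative to vehicle and cell-free wells was fitted four-parametrically to give IC50.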

[2] = biological target: SHP-2 enzyme (Met1-Leu525) (Homo sapiens (Human), UniProt Q06124); experiment: SHP2 inhibition enzymatic assay; format: biochemical; settings: 0.5 nM SHP-2 activated by 500 nM IRS1 peptide, 75 μM DiFMUP substrate; read-out: SHP2wt-IC50
Summary of the method: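 Compounds were preincubated 30 min with 0.5 nM SHP-2 (Met1-Leu525) plus 500 nM IRS1 activating peptide (pH 7.2 HEPES, 5 mM DTT), then 75 μM DiFMUP substrate reacted 30 min at room temperature. After bpV quench, DiFMUP fluorescence gave % inhibition; four-parameter logistic fit yielded IC50.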

SHP-2 enzyme (Met1-Leu525), sequence (Q06124 1-525): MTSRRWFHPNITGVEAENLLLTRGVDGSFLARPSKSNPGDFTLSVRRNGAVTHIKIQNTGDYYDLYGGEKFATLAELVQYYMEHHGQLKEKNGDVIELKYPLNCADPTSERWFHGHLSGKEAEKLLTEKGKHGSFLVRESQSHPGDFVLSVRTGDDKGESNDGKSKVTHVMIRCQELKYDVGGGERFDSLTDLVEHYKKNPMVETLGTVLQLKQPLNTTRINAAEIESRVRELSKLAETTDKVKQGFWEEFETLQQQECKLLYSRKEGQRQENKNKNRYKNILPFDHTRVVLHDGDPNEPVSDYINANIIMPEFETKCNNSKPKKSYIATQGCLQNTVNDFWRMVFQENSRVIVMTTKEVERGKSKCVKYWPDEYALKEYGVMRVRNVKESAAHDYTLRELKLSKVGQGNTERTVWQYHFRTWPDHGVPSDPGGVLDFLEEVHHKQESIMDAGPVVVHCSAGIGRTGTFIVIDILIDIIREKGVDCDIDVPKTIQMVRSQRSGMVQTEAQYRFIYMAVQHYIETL

Structure (SMILES) | IC50 ([1]; Homo sapiens, KYSE-520, 2 h) [µM] | IC50 [2] [µM] | IC50 [1] [µM] | IC50 ([1]; Homo sapiens) [µM]
COc1cc2ccc(-c3n[nH]c4nc(N5CC[C@@H]6[C@H](C5)[C@@]6(CN)c5ccccc5F)cnc34)cc2nn1 [Example 262, ((1S,6R,7R)-7-(2-fluorophenyl)-3-(3-(3-methoxycinnolin-7-yl)-1H-pyrazolo[3,4-b]pyrazin-6-yl)-3-azabicyclo[4.1.0]heptan-7-yl)methanamine] | < 1 | < 0.5 |  | 
NC[C@]1(c2ccccc2F)[C@@H]2CCN(c3cnc4c(-c5ccnc(-c6cnco6)c5Cl)n[nH]c4n3)C[C@@H]21 [Example 263, ((1S,6R,7R)-3-(3-(3-chloro-2-(oxazol-5-yl)pyridin-4-yl)-1H-pyrazolo[3,4-b]pyrazin-6-yl)-7-(2-fluorophenyl)-3-azabicyclo[4.1.0]heptan-7-yl)methanamine] | < 1 | < 0.5 |  | 
NC[C@]1(c2ccccc2F)[C@@H]2CCN(c3cnc4c(-c5ccc(-c6ncco6)cc5Cl)n[nH]c4n3)C[C@@H]21 [Example 264, ((1S,6R,7R)-3-(3-(2-chloro-4-(oxazol-2-yl)phenyl)-1H-pyrazolo[3,4-b]pyrazin-6-yl)-7-(2-fluorophenyl)-3-azabicyclo[4.1.0]heptan-7-yl)methanamine] | < 1 | < 0.5 |  | 
Cn1ccc(-c2nccc(-c3n[nH]c4nc(N5CC[C@@H]6[C@H](C5)[C@@]6(CN)c5ccccc5F)cnc34)c2Cl)n1 [Example 265, ((1S,6R,7R)-3-(3-(3-chloro-2-(1-methyl-1H-pyrazol-3-yl)pyridin-4-yl)-1H-pyrazolo[3,4-b]pyrazin-6-yl)-7-(2-fluorophenyl)-3-azabicyclo[4.1.0]heptan-7-yl)methanamine] | < 1 | < 0.5 |  | 
NC[C@]1(c2cccc(F)c2F)[C@@H]2CCN(c3cnc4c(-c5ccc(C(=O)O)c6ncccc56)n[nH]c4n3)C[C@@H]21 [Example 266, 5-(6-((1S,6R,7R)-7-(aminomethyl)-7-(2,3-difluorophenyl)-3-azabicyclo[4.1.0]heptan-3-yl)-1H-pyrazolo[3,4-b]pyrazin-3-yl)quinoline-8-carboxylic acid] | < 1 | < 0.5 |  | 
CNC(=O)c1ccc(-c2n[nH]c3nc(N4CC[C@@H]5[C@H](C4)[C@@]5(CN)c4cccc(F)c4F)cnc23)c2cccnc12 [Example 267, 5-(6-((1S,6R,7R)-7-(aminomethyl)-7-(2,3-difluorophenyl)-3-azabicyclo[4.1.0]heptan-3-yl)-1H-pyrazolo[3,4-b]pyrazin-3-yl)-N-methylquinoline-8-carboxamide] | < 1 | < 0.5 |  | 
NC[C@]1(c2ccccc2F)[C@@H]2CCN(c3cnc4c(-c5cc[nH]c(=O)c5Cl)n[nH]c4n3)C[C@@H]21 [Example 268, 4-(6-((1S,6R,7R)-7-(aminomethyl)-7-(2-fluorophenyl)-3-azabicyclo[4.1.0]heptan-3-yl)-1H-pyrazolo[3,4-b]pyrazin-3-yl)-3-chloropyridin-2(1H)-one] | < 1 | < 0.5 |  | 
Cn1ccc(-c2n[nH]c3nc(N4CC[C@@H]5[C@H](C4)[C@@]5(CN)c4ccccc4F)cnc23)c(Cl)c1=O [Example 269, 4-(6-((1S,6R,7R)-7-(aminomethyl)-7-(2-fluorophenyl)-3-azabicyclo[4.1.0]heptan-3-yl)-1H-pyrazolo[3,4-b]pyrazin-3-yl)-3-chloro-1-methylpyridin-2(1H)-one] | > 5 | < 0.5 |  | 
NC[C@]1(c2ccccc2F)[C@@H]2CCN(c3cnc4c(N5CC6(CCC6)c6ncccc65)n[nH]c4n3)C[C@@H]21 [Example 270, ((1S,6R,7R)-7-(2-fluorophenyl)-3-(3-(spiro[cyclobutane-1,3′-pyrrolo[3,2-b]pyridin]-1′(2′H)-yl)-1H-pyrazolo[3,4-b]pyrazin-6-yl)-3-azabicyclo[4.1.0]heptan-7-yl)methanamine] | < 1 | < 0.5 |  | 
NC[C@]1(c2ccccc2F)[C@@H]2CCN(c3cnc4c(-c5ccc(C(=O)O)cc5Cl)n[nH]c4n3)C[C@@H]21 [Example 271, 4-(6-((1S,6R,7R)-7-(aminomethyl)-7-(2-fluorophenyl)-3-azabicyclo[4.1.0]heptan-3-yl)-1H-pyrazolo[3,4-b]pyrazin-3-yl)-3-chlorobenzoic acid] | > 5 | < 0.5 |  | 
Cn1c(=O)ccc2c(-c3n[nH]c4nc(N5CC[C@@H]6[C@H](C5)[C@@]6(CN)c5ccccc5F)cnc34)cccc21 [Example 272, 5-(6-((1S,6R,7R)-7-(aminomethyl)-7-(2-fluorophenyl)-3-azabicyclo[4.1.0]heptan-3-yl)-1H-pyrazolo[3,4-b]pyrazin-3-yl)-1-methylquinolin-2(1H)-one] | < 1 | < 0.5 |  | 
CNC(=O)c1ccc(-c2n[nH]c3nc(N4CC[C@@H]5[C@H](C4)[C@@]5(CN)c4ccccc4F)cnc23)c(Cl)c1 [Example 273, 4-(6-((1S,6R,7R)-7-(aminomethyl)-7-(2-fluorophenyl)-3-azabicyclo[4.1.0]heptan-3-yl)-1H-pyrazolo[3,4-b]pyrazin-3-yl)-3-chloro-N-methylbenzamide] | < 1 | < 0.5 |  | 
Cn1ccc2c(-c3n[nH]c4nc(N5CC[C@@H]6[C@H](C5)[C@@]6(CN)c5ccccc5F)cnc34)cccc2c1=O [Example 274, 5-(6-((1S,6R,7R)-7-(aminomethyl)-7-(2-fluorophenyl)-3-azabicyclo[4.1.0]heptan-3-yl)-1H-pyrazolo[3,4-b]pyrazin-3-yl)-2-methylisoquinolin-1(2H)-one] | < 1 | < 0.5 |  | 
Cc1cc([C@@]2(CN)[C@@H]3CN(c4cnc5c(-c6ccc7nn(C)cc7c6Cl)n[nH]c5n4)C[C@@H]32)no1 [Example 275, ((1R,5S,6r)-3-(3-(4-chloro-2-methyl-2H-indazol-5-yl)-1H-pyrazolo[3,4-b]pyrazin-6-yl)-6-(5-methylisoxazol-3-yl)-3-azabicyclo[3.1.0]hexan-6-yl)methanamine] |  | < 0.5 | < 1 | 
NC[C@]1(c2ccccc2F)[C@@H]2CCN(c3cnc4c(-c5ccc(C(N)=O)cc5Cl)n[nH]c4n3)C[C@@H]21 [Example 276, 4-(6-((1S,6R,7R)-7-(aminomethyl)-7-(2-fluorophenyl)-3-azabicyclo[4.1.0]heptan-3-yl)-1H-pyrazolo[3,4-b]pyrazin-3-yl)-3-chlorobenzamide] | < 1 | < 0.5 |  | 
NC[C@]1(c2ccccc2F)[C@@H]2CCN(c3cnc4c(-c5cc(C(=O)O)ccc5Cl)n[nH]c4n3)C[C@@H]21 [Example 277, 3-(6-((1S,6R,7R)-7-(aminomethyl)-7-(2-fluorophenyl)-3-azabicyclo[4.1.0]heptan-3-yl)-1H-pyrazolo[3,4-b]pyrazin-3-yl)-4-chlorobenzoic acid] | > 5 | < 0.5 |  | 
Cn1c(-c2n[nH]c3nc(N4CC[C@@H]5[C@H](C4)[C@@]5(CN)c4ccccc4F)cnc23)ccc(Cl)c1=O [Example 278, 6-(6-((1S,6R,7R)-7-(aminomethyl)-7-(2-fluorophenyl)-3-azabicyclo[4.1.0]heptan-3-yl)-1H-pyrazolo[3,4-b]pyrazin-3-yl)-3-chloro-1-methylpyridin-2(1H)-one] | < 1 | < 0.5 |  | 
NC[C@]1(c2ccccc2F)[C@@H]2CCN(c3cnc4c(-c5ccc(C(=O)NC6CC6)c6ncccc56)n[nH]c4n3)C[C@@H]21 [Example 279, 5-(6-((1S,6R,7R)-7-(aminomethyl)-7-(2-fluorophenyl)-3-azabicyclo[4.1.0]heptan-3-yl)-1H-pyrazolo[3,4-b]pyrazin-3-yl)-N-cyclopropylquinoline-8-carboxamide] | < 1 | < 0.5 |  | 
CC(C)n1cc2c(Cl)c(-c3n[nH]c4nc(N5CC[C@@H]6[C@H](C5)[C@@]6(CN)c5ccccc5F)cnc34)ccc2n1 [Example 280, ((1S,6R,7R)-3-(3-(4-chloro-2-isopropyl-2H-indazol-5-yl)-1H-pyrazolo[3,4-b]pyrazin-6-yl)-7-(2-fluorophenyl)-3-azabicyclo[4.1.0]heptan-7-yl)methanamine] | < 1 | < 0.5 |  | 
NC[C@]1(c2ccccc2F)[C@@H]2CCN(c3cnc4c(-c5cc(C(N)=O)ccc5Cl)n[nH]c4n3)C[C@@H]21 [Example 281, 3-(6-((1S,6R,7R)-7-(aminomethyl)-7-(2-fluorophenyl)-3-azabicyclo[4.1.0]heptan-3-yl)-1H-pyrazolo[3,4-b]pyrazin-3-yl)-4-chlorobenzamide] | > 5 | < 0.5 |  | 
CS(=O)(=O)NC(=O)c1ccc(-c2n[nH]c3nc(N4CC[C@@H]5[C@H](C4)[C@@]5(CN)c4ccccc4F)cnc23)c2cccnc12 [Example 282, 5-(6-((1S,6R,7R)-7-(aminomethyl)-7-(2-fluorophenyl)-3-azabicyclo[4.1.0]heptan-3-yl)-1H-pyrazolo[3,4-b]pyrazin-3-yl)-N-(methylsulfonyl)quinoline-8-carboxamide] | < 1 | < 0.5 |  | 
Cc1csc([C@@]2(CN)[C@@H]3CN(c4cnc5c(-c6ccc(-n7cccn7)cc6Cl)n[nH]c5n4)C[C@@H]32)n1 [Example 283, ((1R,5S,6r)-3-(3-(2-chloro-4-(1H-pyrazol-1-yl)phenyl)-1H-pyrazolo[3,4-b]pyrazin-6-yl)-6-(4-methylthiazol-2-yl)-3-azabicyclo[3.1.0]hexan-6-yl)methanamine] |  | < 0.5 |  | < 1
